Where only a bound is given, the exact number is not on record here.

For the assay, the target named is T1, hTRPV3 (Homo sapiens, UniProt Q8NET8).
T1 construct: The commercially available plasmid with the full-length cDNA of hTRPV3 (791 aa) (NM_001258205.2); host or cells: HEK293T
T1 sequence (Q8NET8 1-791 isoform Q8NET8-2): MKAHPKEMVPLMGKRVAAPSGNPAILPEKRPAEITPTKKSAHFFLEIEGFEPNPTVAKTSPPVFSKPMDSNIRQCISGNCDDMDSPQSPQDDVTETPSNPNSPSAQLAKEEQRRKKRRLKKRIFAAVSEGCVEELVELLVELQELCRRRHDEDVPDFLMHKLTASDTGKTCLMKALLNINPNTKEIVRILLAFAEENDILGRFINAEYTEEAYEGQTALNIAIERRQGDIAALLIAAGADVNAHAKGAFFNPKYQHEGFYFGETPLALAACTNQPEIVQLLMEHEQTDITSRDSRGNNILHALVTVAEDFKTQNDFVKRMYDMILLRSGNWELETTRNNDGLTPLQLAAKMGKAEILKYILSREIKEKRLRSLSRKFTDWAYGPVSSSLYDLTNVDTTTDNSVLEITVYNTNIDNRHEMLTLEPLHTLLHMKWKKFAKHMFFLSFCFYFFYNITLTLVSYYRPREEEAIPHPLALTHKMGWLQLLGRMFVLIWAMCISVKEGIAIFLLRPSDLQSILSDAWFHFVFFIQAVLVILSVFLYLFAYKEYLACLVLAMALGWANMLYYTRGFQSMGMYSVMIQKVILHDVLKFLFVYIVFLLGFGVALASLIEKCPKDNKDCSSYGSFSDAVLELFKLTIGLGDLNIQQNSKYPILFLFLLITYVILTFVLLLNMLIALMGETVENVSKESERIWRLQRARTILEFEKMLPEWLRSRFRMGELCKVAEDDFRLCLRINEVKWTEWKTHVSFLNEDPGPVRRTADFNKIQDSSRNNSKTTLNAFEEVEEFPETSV
The assay is described as follows: Whole-cell patch-clamp recording of hTRPV3 current in transfected HEK293T cells (2-APB induced). It is filed as cell-based. As to conditions: current induced by 300 μM 2-APB, compounds tested up to 10 μM, room temperature. An outline of the steps: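 IC50 comes from Hill fits, 0–100% bounds, of percent block of 2-APB-induced current, with compounds perfused at up to 10 μM. Currents elicited at +80/−80 mV (400-ms steps, 2-s interval, 0 mV hold), room temperature, symmetric NaCl/EDTA/HEPES pH 7.4 solutions. Cells: hTRPV3-transfected HEK293T, used 18 h after transfection.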
For orientation: The patch-clamp technique gives a direct electrical read-out from membranes.
One may read the IC50 as the point on the concentration scale where inhibition reaches its midpoint. A high value points to a need for much substance. Turning to `COc1ncnc(OC)c1C(=O)Nc1nc2c(s1)C1(CN(C(C)=O)C1)Oc1cc(C(F)(F)F)ccc1-2` [compound 68, N-(1-acetyl-7′-(trifluoromethyl)spiro[azetidine-3,4′-chromeno[4,3-d]thiazol]-2′-yl)-4,6-dimethoxypyrimidine-5-carboxamide], the IC50 lay within 1 to 10 µM.
Consider `COc1ncnc(OC)c1C(=O)Nc1nc2c(s1)C1(CCN(C(=O)C3CC3)CC1)Oc1cc(C(F)(F)F)ccc1-2` [compound 69, N-(1′-(cyclopropanecarbonyl)-7-(trifluoromethyl)spiro[chromeno[4,3-d]thiazole-4,4′-piperidin]-2-yl)-4,6-dimethoxypyrimidine-5-carboxamide], for which the IC50 is 0.1 to 1 µM.
The molecule `CCC1(CC)Oc2cc(C(F)(F)F)ccc2-c2nc(NC(=O)c3c(OC)ncnc3OCCOC)sc21` [compound 70, N-(4,4-diethyl-7-(trifluoromethyl)-4H-chromeno[4,3-d]thiazol-2-yl)-4-methoxy-6-(2-methoxyethoxy)pyrimidine-5-carboxamide] came in with an IC50 of 0.1 to 1 µM.
As for `COc1ncnc(OC)c1C(=O)Nc1nc2c(ccc3cc(C#N)ccc32)s1` [compound 71, N-(7-cyanonaphtho[1,2-d]thiazol-2-yl)-4,6-dimethoxypyrimidine-5-carboxamide], the figure is at least 10 µM; as for `COc1ncnc(OC)c1C(=O)Nc1nc2c(cnc3cc(C(F)(F)F)ccc32)s1` [compound 72, 4,6-dimethoxy-N-(7-(trifluoromethyl)thiazolo[5,4-c]quinolin-2-yl)pyrimidine-5-carboxamide], 1 to 10 µM; as for `COc1ncnc(OC)c1C(=O)Nc1nc2c(s1)C1(CCN(S(C)(=O)=O)CC1)Oc1cc(C(F)(F)F)ccc1-2` [compound 73, 4,6-dimethoxy-N-(1′-(methylsulfonyl)-7-(trifluoromethyl)spiro[chromeno[4,3-d]thiazole-4,4′-piperidin]-2-yl)pyrimidine-5-carboxamide], 1 to 10 µM.
As for `CCC(C)(C)C(=O)N1CC2(C1)Oc1cc(C(F)(F)F)ccc1-c1nc(NC(=O)c3c(OC)ncnc3OC)sc12` [compound 74, N-(1-(2,2-dimethylbutanoyl)-7′-(trifluoromethyl)spiro[azetidine-3,4′-chromeno[4,3-d]thiazol]-2′-yl)-4,6-dimethoxypyrimidine-5-carboxamide], the IC50 was in the range of 0.1 to 1 µM.
For `COc1ncnc(OC)c1C(=O)Nc1nc2c(s1)C1(CN(C(=O)c3ccccc3)C1)Oc1cc(C(F)(F)F)ccc1-2` [compound 75, N-(1-benzoyl-7′-(trifluoromethyl)spiro[azetidine-3,4′-chromeno[4,3-d]thiazol]-2′-yl)-4,6-dimethoxypyrimidine-5-carboxamide], the IC50 fell in the range of 0.1 to 1 µM.
The molecule `COc1ncnc(OC)c1C(=O)Nc1nc2c(s1)C1(CN(C(=O)c3ccco3)C1)Oc1cc(C(F)(F)F)ccc1-2` [compound 76, N-(1-(furan-2-carbonyl)-7′-(trifluoromethyl)spiro[azetidine-3,4′-chromeno[4,3-d]thiazol]-2′-yl)-4,6-dimethoxypyrimidine-5-carboxamide] registered an IC50 of 1 to 10 µM.
In turn, `CCCCOC(=O)N1CC2(C1)Oc1cc(C(F)(F)F)ccc1-c1nc(NC(=O)c3c(OC)ncnc3OC)sc12` [compound 77, butyl 2′-(4,6-dimethoxypyrimidine-5-carboxamido)-7′-(trifluoromethyl)spiro[azetidine-3,4′-chromeno[4,3-d]thiazole]-1-carboxylate] had an IC50 of 0.1 to 1 µM.
As for `CCOC(=O)N1CC2(C1)Oc1cc(C(F)(F)F)ccc1-c1nc(NC(=O)c3c(OC)ncnc3OC)sc12` [compound 78, ethyl 2′-(4,6-dimethoxypyrimidine-5-carboxamido)-7′-(trifluoromethyl)spiro[azetidine-3,4′-chromeno[4,3-d]thiazole]-1-carboxylate], the figure is 0.1 to 1 µM; as for `CCC1(CC)Oc2cc(C(F)(F)F)ccc2-c2nc(NC(=O)c3c(OC)nc(O)nc3OC)sc21` [compound 79], at least 10 µM; as for `CCC1(CC)Oc2cc(C(F)(F)F)ccc2-c2nc(NC(=O)c3c(OC)nc(N)nc3OC)sc21` [compound 80, 2-amino-N-(4,4-diethyl-7-(trifluoromethyl)-4H-chromeno[4,3-d]thiazol-2-yl)-4,6-dimethoxypyrimidine-5-carboxamide], at least 10 µM.
Consider `C#Cc1ccc2c(c1)OC(CC)(CC)c1sc(NC(=O)c3c(OC)ncnc3OC)nc1-2` [compound 81, N-(4,4-diethyl-7-ethynyl-4H-chromeno[4,3-d]thiazol-2-yl)-4,6-dimethoxypyrimidine-5-carboxamide], for which the IC50 was 0.1 to 1 µM.
As to `COc1ncnc(OC)c1C(=O)Nc1nc2c(s1)CCOc1cc(C(F)(F)F)ccc1-2` [compound 82, 4,6-dimethoxy-N-(8-(trifluoromethyl)-4,5-dihydrobenzo[2,3]oxepino[4,5-d]thiazol-2-yl)pyrimidine-5-carboxamide], the IC50 lay within 0.1 to 1 µM.
In turn, `CCC1(CC)Oc2ccc(C(F)(F)F)cc2-c2nc(NC(=O)c3c(OC)ncnc3OC)sc21` [compound 83, N-(4,4-diethyl-8-(trifluoromethyl)-4H-chromeno[4,3-d]thiazol-2-yl)-4,6-dimethoxypyrimidine-5-carboxamide] yielded an IC50 of at least 10 µM.
As for `COc1ncnc(OC)c1C(=O)Nc1nc2c(s1)Cc1cc(C(F)(F)F)ccc1-2` [compound 84, 4,6-dimethoxy-N-(6-(trifluoromethyl)-8H-indeno[1,2-d]thiazol-2-yl)pyrimidine-5-carboxamide], the figure is 1 to 10 µM; as for `COc1ncnc(OC)c1C(=O)Nc1nc2c(s1)C(C)(C)Nc1cc(C(F)(F)F)ccc1-2` [compound 85, N-(4,4-dimethyl-7-(trifluoromethyl)-4,5-dihydrothiazolo[5,4-c]quinolin-2-yl)-4,6-dimethoxypyrimidine-5-carboxamide], 1 to 10 µM.
For the molecule `COc1ncnc(OC)c1C(=O)Nc1nc2c(s1)COc1ccc(Cl)cc1-2` [compound 86, N-(8-chloro-4H-chromeno[4,3-d]thiazol-2-yl)-4,6-dimethoxypyrimidine-5-carboxamide], the 50% inhibitory concentration (IC50) lay within 1 to 10 µM.
On to `COc1ncnc(OC)c1C(=O)Nc1nc2c(s1)C(C)(C)N(C)c1cc(C(F)(F)F)ccc1-2` [compound 87, 4,6-dimethoxy-N-(4,4,5-trimethyl-7-(trifluoromethyl)-4,5-dihydrothiazolo[5,4-c]quinolin-2-yl)pyrimidine-5-carboxamide], for which the IC50 is 0.1 to 1 µM.
In turn, `C=CCN1c2cc(C(F)(F)F)ccc2-c2nc(NC(=O)c3c(OC)ncnc3OC)sc2C1(C)C` [compound 88, N-(5-allyl-4,4-dimethyl-7-(trifluoromethyl)-4,5-dihydrothiazolo[5,4-c]quinolin-2-yl)-4,6-dimethoxypyrimidine-5-carboxamide] gave an IC50 of 0.1 to 1 µM.
Take `CCC1(CC)Oc2cc(C(F)(F)F)ccc2-c2nc(NC(=O)c3cc(OC)nnc3Cl)sc21` [compound 89, 3-chloro-N-(4,4-diethyl-7-(trifluoromethyl)-4H-chromeno[4,3-d]thiazol-2-yl)-6-methoxypyridazine-4-carboxamide]: the IC50 is at least 10 µM.
Take `CCC1(CC)Oc2cc(C(F)(F)F)ccc2-c2nc(NC(=O)c3cc(Cl)nnc3OC)sc21` [compound 90, 6-chloro-N-(4,4-diethyl-7-(trifluoromethyl)-4H-chromeno[4,3-d]thiazol-2-yl)-3-methoxypyridazine-4-carboxamide]: the IC50 was in the range of 1 to 10 µM.
As for `CCC1(CC)Oc2cc(C(F)(F)F)ccc2-c2nc(NC(=O)c3cc(OC)nnc3OC)sc21` [compound 91, N-(4,4-diethyl-7-(trifluoromethyl)-4H-chromeno[4,3-d]thiazol-2-yl)-3,6-dimethoxypyridazine-4-carboxamide], the figure is at least 10 µM; as for `COC(=O)N1CC2(C1)Oc1cc(C(F)(F)F)ccc1-c1nc(NC(=O)c3c(OC)ncnc3OC)sc12` [compound 92, methyl 2′-(4,6-dimethoxypyrimidine-5-carboxamido)-7′-(trifluoromethyl)spiro[azetidine-3,4′-chromeno[4,3-d]thiazole]-1-carboxylate], 0.1 to 1 µM.
As to `CCC1(CC)Oc2cc(C(F)(F)F)ccc2-c2nc(NC(=O)c3c(C)n[nH]c3C)sc21` [compound 93, N-(4,4-diethyl-7-(trifluoromethyl)-4H-chromeno[4,3-d]thiazol-2-yl)-3,5-dimethyl-1H-pyrazole-4-carboxamide], the IC50 lay in the range of 1 to 10 µM.
The figure for `CCC1(CC)Oc2cc(C(F)(F)F)ccc2-c2nc(NC(=O)c3c[nH]nc3OC)sc21` [compound 94, N-(4,4-diethyl-7-(trifluoromethyl)-4H-chromeno[4,3-d]thiazol-2-yl)-3-methoxy-1H-pyrazole-4-carboxamide] is at least 10 µM.

For the origin of these results see patent US20260217697A1, “COMPOUNDS COMPRISING HETEROARYL RINGS AND COMPOSITIONS AND METHODS THEREOF” (lonGen Therapeutics Co., Ltd., priority 2022, published 2026).
